Format in all cases: cell-based
One data set concerns the target T1, FXRa (NR1H4) (Homo sapiens, UniProt Q96RI1).
T1 sequence (Q96RI1 1-486): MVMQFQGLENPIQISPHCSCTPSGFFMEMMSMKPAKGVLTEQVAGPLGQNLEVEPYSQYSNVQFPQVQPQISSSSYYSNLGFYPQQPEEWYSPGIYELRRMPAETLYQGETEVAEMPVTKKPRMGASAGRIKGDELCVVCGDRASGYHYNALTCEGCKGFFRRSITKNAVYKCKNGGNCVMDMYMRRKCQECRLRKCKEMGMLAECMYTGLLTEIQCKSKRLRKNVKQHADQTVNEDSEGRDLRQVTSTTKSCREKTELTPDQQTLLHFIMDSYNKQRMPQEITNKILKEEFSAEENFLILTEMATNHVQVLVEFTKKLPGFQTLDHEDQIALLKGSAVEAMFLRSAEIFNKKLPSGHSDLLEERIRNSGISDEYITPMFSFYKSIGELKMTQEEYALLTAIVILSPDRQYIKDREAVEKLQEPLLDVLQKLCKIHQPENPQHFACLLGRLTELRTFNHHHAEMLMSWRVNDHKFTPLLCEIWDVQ
The experiment in a line: nuclear hormone receptor reporter gene assay. Conditions: concentrations up to 10 μM. From the text:
(§1) So far oxysterols have been noted to have various physiological activities namely regulate the expression of genes that participate in both sterol and fat metabolism, serve as substrates for the synthesis of bile acids, and are intermediates in the transfer of sterols from the periphery to the liver (Russell, D. W. (2000). Oxysterol biosynthetic enzymes. Biochim. Biophys. Acta 1529, 126-135). […] This included binding assays for 26 different GPCRs, functional assays of 9 different GPCRs, 40 kinase assays, as well as selected ion channels, proteases, transporter and enzyme assays.

A further data set addresses T2, RXRa (NR2B1) (Homo sapiens, UniProt P19793).
T2 sequence (P19793 1-462): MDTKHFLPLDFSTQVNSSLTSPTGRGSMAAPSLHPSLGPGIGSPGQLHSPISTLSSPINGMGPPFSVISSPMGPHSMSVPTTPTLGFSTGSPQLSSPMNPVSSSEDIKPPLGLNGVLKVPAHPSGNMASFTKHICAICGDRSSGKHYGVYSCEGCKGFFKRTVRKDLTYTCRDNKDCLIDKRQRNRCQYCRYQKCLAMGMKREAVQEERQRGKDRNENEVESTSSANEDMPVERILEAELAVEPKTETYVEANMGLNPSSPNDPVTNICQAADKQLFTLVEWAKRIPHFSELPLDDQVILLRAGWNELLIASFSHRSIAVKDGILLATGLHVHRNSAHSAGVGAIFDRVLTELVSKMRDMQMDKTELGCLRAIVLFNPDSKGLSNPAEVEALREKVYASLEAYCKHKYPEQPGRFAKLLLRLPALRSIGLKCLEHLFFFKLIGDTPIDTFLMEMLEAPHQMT
Put plainly: nuclear hormone receptor reporter gene assay. The note with it: concentrations up to 10 μM.
Source text: as §1

Another data set has as its target T3, SXR (NR112) (Homo sapiens, UniProt O75469).
T3 sequence (O75469 1-434): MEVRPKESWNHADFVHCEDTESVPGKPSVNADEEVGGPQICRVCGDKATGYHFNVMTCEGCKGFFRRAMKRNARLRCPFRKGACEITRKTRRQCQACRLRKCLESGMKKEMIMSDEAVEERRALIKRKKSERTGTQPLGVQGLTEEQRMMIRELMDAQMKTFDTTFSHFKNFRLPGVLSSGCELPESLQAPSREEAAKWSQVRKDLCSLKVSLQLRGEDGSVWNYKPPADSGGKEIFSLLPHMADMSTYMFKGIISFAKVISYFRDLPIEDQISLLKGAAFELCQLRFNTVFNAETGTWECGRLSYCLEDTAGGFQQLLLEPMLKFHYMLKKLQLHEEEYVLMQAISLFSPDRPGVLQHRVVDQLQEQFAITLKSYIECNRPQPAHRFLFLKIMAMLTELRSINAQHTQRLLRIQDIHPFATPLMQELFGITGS
The experiment in a line: nuclear hormone receptor reporter gene assay. Conditions: concentrations up to 10 μM.
Source text: as §1

The target in data set [1] is T4, hEBI2 (Homo sapiens, UniProt P32249). Put plainly: aequorin assay, hEBI2 stably transfected CHO-AeqGα16 cells. On the set-up: expressed in transfected cells; host or cells: CHO-K1 expressing apoaequorin (CHO-Aeq) with Gqi5; line E2. Here is the method:
Stable cell line expressing human EBI2 (in pcDNA3.1 vector) and Gα16 was generated with parental CHO cells that stably express apo-aequorin (Euroscreen CHO-A12 cell line). The cells were seeded into 384 well black clear bottom plates (Greiner Bio-one) at 10,000 cells/25 μl well in F12 medium containing 3% FBS and incubated overnight. Coelenterazine (20 μM final) was added into the cell plates at 25 μl/well. The cell plates were returned to incubator for 3 hrs. The compounds were diluted 1:20 into an intermediate plate with Tyrode buffer (130 mM NaCl, 2 mM CaCl2, 5 mM NaHCO3, 5 mM KCl, 1 mM MgCl2, 20 mM HEPES, pH 7.4). 12.5 μl/well of pre-diluted compounds were transfered into the cell assay plate and read on LumiLux™ (Perkin Elmer) for flash luminescence.
An algorithm similar to area under curve (AUC) was created in house to analyze the aequorin kinetic data, which was named Slope Threshold (Slope 100). The algorithm defines the beginning and the end of the luminescence intensity peak by comparing the difference in intensity of each time point with an earlier time point, and determining if the difference exceeds a defined threshold, which was usually set at 100. If it does, then the intensity of the later time point is added into the Slope Threshold's sum.

Data set [2] deals with T4, hEBI2. The experiment in a line: cAMP assay, hEBI2 CHO-AeqGα16 cells. On the set-up: expressed in transfected cells; host or cells: CHO-K1 expressing apoaequorin (CHO-Aeq) with Gqi5; line E2. Here is the method: The same stable EBI2 cell line used in the aequorin assay was used in cAMP assay. 10,000 cells (25 μA) were seeded per well into white solid 384-well plate and incubated in 37° C. incubator overnight. 500 nl of compound was then transferred into each assay well, followed by 5 μl of forskolin addition for a final concentration of 30 μM. Cells were returned to a 37° C. incubator for 30 min. Finally 15 μl each of HiRange D2-cAMP and anti-cAMP cryptate were dispensed per well. After >1 hr room temperature incubation, data acquisition was done in the time-resolved FRET (fluorescence-resonance energy transfer) mode on Envision™ or ViewLux™ (Perkin Elmer). The ratio between the acceptor fluorescence signal (A665 nm) and donor fluorescence signal (A620 nm)×104, representing the FRET between the conjugated cAMP and the anti-cAMP antibody, was calculated and plotted on Y-axis. The higher the signal, the lower endogenous cAMP concentration is in the sample.

This note sets out measurements from patent US8497075B2, “Methods of identifying a modulator that inhibits the binding between Epstein-Barr virus induced receptor 2 and cholesterol derived ligands” (Novartis AG, priority 2008, dated 2013).

T4 sequence (P32249 whole entry): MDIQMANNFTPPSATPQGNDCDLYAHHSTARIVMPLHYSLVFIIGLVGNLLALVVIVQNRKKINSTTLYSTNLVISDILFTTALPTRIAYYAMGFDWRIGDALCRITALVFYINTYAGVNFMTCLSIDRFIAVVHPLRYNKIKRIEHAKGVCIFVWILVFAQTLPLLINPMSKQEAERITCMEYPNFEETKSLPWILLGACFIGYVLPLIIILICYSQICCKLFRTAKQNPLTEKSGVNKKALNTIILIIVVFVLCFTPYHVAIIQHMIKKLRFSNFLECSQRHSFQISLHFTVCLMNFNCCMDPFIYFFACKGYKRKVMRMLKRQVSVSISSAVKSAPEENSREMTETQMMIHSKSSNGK

Turning to `C[C@H](CCCC(C)(C)O)[C@H]1CC[C@H]2[C@@H]3[C@H](O)C=C4C[C@@H](O)CC[C@]4(C)[C@H]3CC[C@]12C` [7a,25DHC, cholest-5-ene-3b,7a,25-triol], at FXRa (NR1H4), the “activation of FXRa” value is “did not activate”. In addition, the “activation of RXRa” value at RXRa (NR2B1) is listed as “did not activate”. For the same compound, at SXR (NR112), the “activation of SXR” value is listed as “did not activate”. Further, the EC50 at hEBI2 [1] was 18.4 nM; at hEBI2 [2], 10.3 nM.

For the compound `CC(CO)CCC[C@@H](C)[C@H]1CC[C@H]2[C@@H]3[C@H](O)C=C4C[C@@H](O)CC[C@]4(C)[C@H]3CC[C@]12C` (stereo partly shown) [7a,27DHC, cholest-5-ene-3b,7a,27-triol], at FXRa (NR1H4), the “activation of FXRa” value is reported as “did not activate”. In addition, the “activation of RXRa” value on RXRa (NR2B1) was “did not activate”. In addition, the “activation of SXR” value on SXR (NR112) is “did not activate”.

For the compound `C[C@H](CCCC(C)(C)O)[C@H]1CC[C@H]2[C@@H]3[C@@H](O)C=C4C[C@@H](O)CC[C@]4(C)[C@H]3CC[C@]12C` [7b,25DHC, cholest-5-ene-3b,7b,25-triol], the EC50 on hEBI2 [1] (CHO-AeqGα16, read-out: EC50, activation of EBI2 (aequorin)) came to 398 nM; at hEBI2 [2] (forskolin 30 μM, read-out: EC50, cAMP assay), 10600 nM.
